The record followed here is US20250387375A1, “SOFALCONE DERIVATIVES AND MEDICAL USE THEREOF” (KAOHSIUNG MEDICAL UNIVERSITY, priority 2024, published 2025).

The target in data set [1] is T1, TxA2 receptor (Homo sapiens, UniProt P21731).
T1 construct: The blood samples were centrifuged to obtain platelets, and residual plasma was removed by washing to prepare platelet suspension; endogenous in cells; host or cells: washed human platelets from healthy donors
T1 sequence (P21731 1-343): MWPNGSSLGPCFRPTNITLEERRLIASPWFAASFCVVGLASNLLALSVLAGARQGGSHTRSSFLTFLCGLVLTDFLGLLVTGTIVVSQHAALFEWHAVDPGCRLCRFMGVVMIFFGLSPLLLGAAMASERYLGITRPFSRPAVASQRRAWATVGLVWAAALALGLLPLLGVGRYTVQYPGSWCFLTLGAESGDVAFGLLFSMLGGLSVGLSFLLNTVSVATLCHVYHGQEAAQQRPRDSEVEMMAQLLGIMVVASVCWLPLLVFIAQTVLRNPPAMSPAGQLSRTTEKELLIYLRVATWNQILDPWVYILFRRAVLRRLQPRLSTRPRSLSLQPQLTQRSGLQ
Briefly: Competitive antagonism of U46619-induced platelet aggregation (U46619 concentration-response curves). The conditions noted are these: for mode of action at TxA2 receptor: concluded from parallel right shift of U46619 curves; for U46619 concentration-platelet aggregation response curve / maximum level of platelet aggregation: U46619 0.1-10 μM. The class given is cell-based. The procedure:
After human platelet suspension was pretreated with dimethyl sulfoxide (DMSO) or sofalcone (SFC) (FIG. 5A), sofalcone derivative 3 (FIG. 5B), and sofalcone derivative 30 (FIG. 5C), different concentrations of U46619 (0.1-10 μM) were added to stimulate platelet aggregation reaction. Data are presented as mean±standard error of the mean (n=5).
(§1) Blood samples were collected from healthy donors, and acid-citrate-dextrose (ACD) solution was used as an anticoagulant. The blood samples were centrifuged to obtain platelets, and residual plasma was removed by washing to prepare platelet suspension.
(§2) In the experimental method, a platelet aggregometer (Chrono-Log Co., Havertown, PA, USA) was used for tests. The compound to be tested was added to the platelet suspension and reacted for 3 minutes at 37° C. with stirring (1200 rpm). Then, platelet stimulator U46619 or collagen was added to initiate platelet aggregation, and the test time was 5 minutes. The principle of the platelet aggregation test was: when platelets were stimulated to induce aggregation reaction, the light transmission of the platelet suspension would increase; by calculating changes in light transmission of the platelet suspension before and after being stimulated, the percentage of platelet aggregation could be obtained.
After pretreating human platelet suspensions with dimethylsulfoxide (DMSO), sofalcone (20 μM and 50 μM), and sofalcone derivatives 3 or 30 (0.2 μM and 0.5 μM, respectively), different concentrations of U46619 (0.1-10 μM) were added to stimulate platelet aggregation.

Data set [2] concerns human platelet suspension (platelet aggregation caused by TxA2 agonist U46619). Put plainly: Platelet aggregation reaction test, U46619-induced. The data set is classed as cell-based. The procedure: as §1, §2
In data set [3] the test system is PGE2 formation in human platelet suspensions. Put plainly: Measurement of platelet PGE2 level after arachidonic acid. The conditions noted are these: AA 100 μM; human platelet suspension. The data set is classed as cell-based. The procedure: (§3) FIGS. 6A and 6B show the effect of sofalcone and its derivatives on TxB2 and PGE2 productions induced by arachidonic acid (AA). […] After human platelet suspension was pretreated with dimethyl sulfoxide (DMSO) or sofalcone (SFC), sofalcone derivative 3, and sofalcone derivative 30, arachidonic acid (100 μM) was added to stimulate the productions of arachidonic acid metabolites TxB2 and PGE2. Data are presented as mean±standard error of the mean (n>5). Compared with the control group, *P<0.05, **P<0.01, ***P<0.001. ASA: Aspirin.
as §1
(§4) The compound to be tested was added to the platelet suspension and reacted for 3 minutes at 37° C. under stirring (1200 rpm), then arachidonic acid (AA) (100 μM) was added to react for 4 minutes, and finally EDTA (5 mM) was added to terminate the reaction. The above sample was centrifuged at 13,000 rpm for 1 minute at 4° C. and the supernatant was collected. The concentrations of TxB2 and PGE2 in the supernatant were measured respectively using enzyme immunoassay kits (TxB2 ELISA kit and PGE2 ELISA kit; Cayman Chemical Company).

Data set [4] deals with TxB2 formation in human platelet suspensions. Briefly: Measurement of platelet TxB2 level after arachidonic acid. The data set is classed as cell-based. The conditions noted are these: AA 100 μM; human platelet suspension. The procedure: as §3, §1, §4
The subject of data set [5] is human platelet suspension (platelet aggregation caused by collagen). Briefly: Platelet aggregation reaction test, collagen-induced. The class given is cell-based. The note with it: read-out: Collagen IC 50. The procedure: as §1, §2
The test system of data set [6] is normal hemostatic function (tail bleeding). Put plainly: Mouse bleeding test (tail bleeding time). The data set is classed as in vivo, BALB/c mice. The method, then: Mice were orally administered by gavage with sofalcone (SFC, once daily for 4 days), derivative 17, or aspirin (ASA) (single administration only). Then the mouse's tail was transected and the tail bleeding time was recorded. Data are presented as mean±standard error of the mean (n≥6). Compared with the control group, ***P<0.001. n.s.: No significant difference. In the present invention, the effect of the to-be-tested compound on normal hemostasis was evaluated by docking off the tail ends of the mice to cause bleeding. The to-be-tested compound was orally administered to BALB/c mice aged approximately 6-8 weeks by gavage. Then, the mice were anesthetized with isoflurane, and 2 mm of the distal end of their tails were excised. The tails of the mice were immersed in physiological saline at 37° C., and the bleeding time was observed. The determination of bleeding time was: the time required from the time the mouse tail was cut off until the bleeding completely stopped.

The subject of data set [7] is FeCl3-induced carotid artery thrombosis. Briefly: Ferric chloride-induced carotid artery thrombosis in mice. The class given is in vivo, BALB/c mice. The note with it: oral gavage. The procedure: Mice were orally administered by gavage with sofalcone (SFC, once daily for 4 days), derivative 17, or aspirin (ASA) (single administration only). The mice are then treated with ferric chloride solution to induce carotid artery thrombosis, and an ultrasound imaging system was used to monitor the time required for the thrombus to block the carotid artery (occlusion time). Data are presented as mean±standard […] error of the mean (n≥6). Compared with the control group, *P<0.05, ***P<0.001. In this experiment, a ferric chloride-induced arterial injury was used to evaluate the antithrombotic effect of the to-be-tested compound. The to-be-tested compound was orally administered by gavage to BALB/c mice aged approximately 6-8 weeks. Then, the mice were anesthetized with isoflurane, the right carotid artery was exposed through surgery, and filter paper (2×4 mm^2) containing 8.5% ferric chloride was attached to the right carotid artery for 3 minutes. After removing the filter paper, remaining ferric chloride was wiped off with cotton balls soaked with physiological saline, and an ultrasonic imaging system (VEVO 2100 system, VisualSonics) equipped with a Doppler flow probe (MS400, 18-38 MHz) was used to monitor the blood flow of the right carotid artery. The occlusion time was determined when the blood flow completely stopped for at least 1 minute. If the occlusion time was longer than 30 minutes, it was considered the end point of the experiment.

Some results are limits rather than exact numbers.

`CC(C)=CCOc1ccc(/C=C/C(=O)c2ccc(OCC=C(C)C)cc2OCCCC(=O)O)cc1` [Compound 30]: the “mode of action at TxA2 receptor” value in data set [1] is given as “competitively antagonize”. For the same compound, in data set [1] (pretreatment 0.2 μM and 0.5 μM), the “U46619 concentration-platelet aggregation response curve” value is listed as “shifted parallelly to the right” and the “maximum level of platelet aggregation” value is reported as “not significantly affected”. Moreover, the IC50 in data set [2] was determined as 0.04 µM. Also, in data set [3], the “formation of PGE2 induced by arachidonic acid” value is “did not inhibit”. Moreover, in data set [4], the “formation of TxB2 induced by arachidonic acid” value is on record as “did not inhibit”. Further, the IC50 in data set [5] was found to be 0.38 µM.

As to `CC(C)=CCOc1ccc(/C=C/C(=O)c2ccc(OCC=C(C)C)cc2OCCCC(=O)[O-])cc1.[K+]` [Compound 17], the tail bleeding time result is given as “did not affect” in data set [6] (mouse, in vivo, po, 10 mg/kg) and “did not affect” in data set [6] (mouse, in vivo, po, 25 mg/kg). Moreover, the “carotid artery occlusion time” value in data set [7] (single dose 10 mg/kg) and in data set [7] (single dose 25 mg/kg) was “significantly prolonged” each time. The IC50 is 0.04 µM in data set [2] and 0.32 µM in data set [5].

Regarding `CC(C)=CCOc1ccc(/C=C/C(=O)c2ccc(OCC=C(C)C)cc2OCC(=O)O)cc1` [SFC, sofalcone], the “mode of action at TxA2 receptor” value in data set [1] was “competitively antagonize”. Also, the “U46619 concentration-platelet aggregation response curve” value in data set [1] (pretreatment 20 μM and 50 μM) is on record as “shifted parallelly to the right”. Besides, the “maximum level of platelet aggregation” value in data set [1] (pretreatment 20 μM and 50 μM) was “not significantly affected”. Also, in data set [6] (mice, oral gavage, 50 mg/kg per day for 4 days), the tail bleeding time entry is “did not affect”. Moreover, the “carotid artery occlusion time” value in data set [7] (50 mg/kg per day for 4 days) is given as “significantly prolonged”. In addition, the IC50 in data set [2] came to 16 µM; in data set [5], 49 µM. Also, in data set [3], the “formation of PGE2 induced by arachidonic acid” value is “did not inhibit”. In data set [4], the “formation of TxB2 induced by arachidonic acid” value was “did not inhibit”.

`O=C(O)CCCCCOc1ccccc1C(=O)CCc1ccccc1` [Compound 116]: the IC50 worked out at 0.2 µM in data set [2] and 4.46 µM in data set [5].

With `CCOC(=O)CCCCCOc1ccccc1C(=O)CCc1ccccc1` [Compound 115], the values for the IC50 in data set [2] and in data set [5] were 0.2 µM and 5.87 µM, respectively.

Take `O=C(O)CCCCOc1ccccc1C(=O)C=Cc1ccccc1` [Compound 101]: the IC50 in data set [2] is 3.53 µM; in data set [5], 3.25 µM.

As for `O=C(O)CCCCCCCOc1ccccc1C(=O)C=Cc1ccccc1` [Compound 107], the IC50 in data set [2] was found to be 2.49 µM; in data set [5], 8.35 µM.

Regarding `COC(=O)CCCOc1ccccc1C(=O)C=Cc1ccccc1` [Compound 112], the IC50 in data set [2] worked out at 13.4 µM; in data set [5], 2.69 µM.

Turning to `CCCCOc1ccc(C=CC(=O)c2ccc(OCCCC)cc2OCC(=O)OC)cc1` [Compound 90], the IC50 in data set [2] and in data set [5] was above 100 µM each time.

Consider `CCOC(=O)COc1cc(O)ccc1C(=O)C=Cc1ccc(F)cc1` [Compound 43], for which the IC50 worked out at 55.6 µM in data set [2] and 2.26 µM in data set [5].

Take `O=C(O)COc1ccccc1C(=O)C=Cc1ccco1` [Compound 56]: the IC50 in data set [2] amounted to 72.2 µM; in data set [5] it was 38.3 µM.

`O=C(O)COc1cc(F)ccc1C(=O)/C=C/c1ccccc1` [Compound 29]: the IC50 in data set [2] was 1.56 µM; in data set [5] it was 7.88 µM.

`CC(C)=CCOc1ccc(C(=O)/C=C/c2ccccc2OCC=C(C)C)c(OCC(=O)O)c1` [Compound 19]: the IC50 in data set [2] is 20.3 µM; in data set [5], 15.2 µM.

Consider `CCOC(=O)COc1ccc(C=CC(=O)c2ccc(OCC(=O)OCC)cc2OCC(=O)O)cc1` [Compound 84], for which the IC50 is 80.8 µM in data set [2] and above 100 µM in data set [5].

For the compound `COC(=O)COc1cc(O)ccc1C(=O)CCc1ccc(O)cc1` [Compound 72], the IC50 is 47.6 µM in data set [2] and 11.6 µM in data set [5].

`CC(C)=CCOc1ccc(C(=O)/C=C/c2ccc(F)cc2)c(OCCCC(=O)O)c1` [Compound 15]: the IC50 in data set [2] is 0.05 µM; in data set [5], 0.35 µM.

Take `O=C(O)COc1cc(F)ccc1C(=O)C=Cc1ccccc1` [Compound 31]: the IC50 came to 4.4 µM in data set [2] and 7.1 µM in data set [5].

As to `CC(C)=CCOc1ccc(C(=O)/C=C/c2ccc(Cl)cc2)c(OCC(=O)O)c1` [Compound 24], the IC50 was found to be 43.4 µM in data set [2] and 67.6 µM in data set [5].

For the compound `O=C(O)CCCCCOc1ccccc1C(=O)/C=C/c1ccccc1F` [Compound 1], the results for the IC50 in data set [2] and in data set [5] were 0.51 µM and 0.07 µM, respectively.

With `CCOC(=O)COc1ccc(C=CC(=O)c2ccc(OCC(=O)OCC)cc2OCC(=O)OC)cc1` [Compound 83], the values for the IC50 in data set [2] and in data set [5] were 8.62 µM and 8.31 µM, respectively.

Regarding `CCOC(=O)CCCOc1ccccc1C(=O)C=Cc1ccccc1` [Compound 109], the values for the IC50 in data set [2] and in data set [5] were 9.56 µM and 4.89 µM, respectively.

As for `CC(C)=CCCC(C)=CCOc1ccc(C(=O)C=Cc2ccc(OCC=C(C)C)cc2)c(OCCCC(=O)O)c1` [Compound 5], the IC50 in data set [2] worked out at 4.45 µM; in data set [5] it was 6.28 µM.

For the compound `O=C(O)CCCCCOc1cc(F)ccc1C(=O)/C=C/c1ccc(F)cc1` [Compound 12], the IC50 in data set [2] was 0.5 µM; in data set [5], 0.43 µM.

Regarding `CCCCCCCCCCOc1ccc(C=CC(=O)c2ccc(OCCCCCCCCCC)cc2OCC(=O)O)cc1` [Compound 97], the IC50 in data set [2] and in data set [5] was above 50 µM in each case.

Regarding `CC(C)=CCOc1cccc(/C=C/C(=O)c2ccc(OCC=C(C)C)cc2OCC(=O)O)c1` [Compound 20], the IC50 in data set [2] is 20.6 µM; in data set [5], 28.3 µM.
